Results from patent US7138361B2, “Herbicidal heterocycles” (E. I. du Pont de Nemours and Company, priority 2000, dated 2006).

Key:
Type in all cases: in vivo
Sunflower [1] = assay: Test C preemergence; conditions: visual evaluation after 12 to 14 days
[2] = tested on: giant foxtail (Setaria faberii); assay: Test C preemergence; conditions: for Plant response rating (0 to 100), Foxtail, Giant: visual evaluation after 12 to 14 days
Outline: (§1)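 Test chemicals, formulated in a non-phytotoxic solvent mixture with surfactant, were applied preemergence to planted seeds or postemergence to plants 2 to 18 cm tall (1- to 4-leaf stage). After 12 to 14 days in a greenhouse, injury was visually rated against untreated controls on a 0–100 scale.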

Sunflower [3] = assay: Test C preemergence
[4] = tested on: Surinam grass (Brachiaria decumbens); assay: Test C preemergence; conditions: for Plant response rating (0 to 100), Surinam grass: visual evaluation after 12 to 14 days
Outline: as §1

[5] = tested on: common ragweed (Ambrosia elatior); assay: Test C preemergence; conditions: for Plant response rating (0 to 100), Ragweed, Common: visual evaluation after 12 to 14 days
Outline: as §1

[6] = tested on: velvetleaf (Abutilon theophrasti); assay: Test C preemergence; conditions: for Plant response rating (0 to 100), Velvetleaf: visual evaluation after 12 to 14 days
Outline: as §1

[7] = tested on: goosegrass (Eleusine indica); assay: Test C preemergence; conditions: for Plant response rating (0 to 100), Goosegrass: visual evaluation after 12 to 14 days
Outline: as §1

[8] = tested on: cocklebur (Xanthium strumarium); assay: Test C preemergence
Outline: as §1

[9] = tested on: crabgrass (Digitaria sanguinalis); assay: Test C preemergence; conditions: for Plant response rating (0 to 100), Crabgrass: visual evaluation after 12 to 14 days
Outline: as §1

[10] = tested on: bermudagrass (Cynodon dactylon); assay: Test C preemergence; conditions: for Plant response rating (0 to 100 where 0 is no effect and 100 is complete control), Bermudagrass: visual evaluation after 12 to 14 days
Outline: as §1

[11] = tested on: morningglory (Ipomoea hederacea); assay: Test C preemergence; conditions: for Plant response rating (0 to 100), Morningglory: visual evaluation after 12 to 14 days
Outline: as §1

[12] = tested on: giant foxtail (Setaria faberii); assay: Test B preemergence
Outline: (§2)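 Seeds were planted and sprayed preemergence with test chemical in a non-phytotoxic solvent mixture containing surfactant; postemergence plants (2 to 18 cm, 1- to 4-leaf stage) received the same formulation. Greenhouse hold 13 to 15 days, then visual rating versus untreated controls on a 0–100 scale (0 no effect, 100 complete control).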

[13] = tested on: Surinam grass (Brachiaria decumbens); assay: Test B preemergence
Outline: as §2

[14] = tested on: barnyardgrass (Echinochloa crus-galli); assay: Test B preemergence
Outline: as §2

corn (Zea mays) = assay: Test B preemergence
Outline: as §2

[15] = tested on: velvetleaf (Abutilon theophrasti); assay: Test B preemergence
Outline: as §2

[16] = tested on: pigweed (Amaranthus retroflexus); assay: Test B preemergence
Outline: as §2

rice (Oryza saliva) = assay: Test B preemergence
Outline: as §2

[17] = tested on: cocklebur (Xanthium strumarium); assay: Test B preemergence
Outline: as §2

[18] = tested on: crabgrass (Digitaria sanguinalis); assay: Test B preemergence
Outline: as §2

[19] = tested on: lambsquarters (Chenopodium album); assay: Test B preemergence
Outline: as §2

[20] = tested on: morning glory (Ipomoea hederacea); assay: Test B preemergence
Outline: as §2

[21] = Rate 125 g/ha, scale 0 to 100, 0 no effect, 100 complete control
[22] = preemergence, Rate 62 g/ha, scale 0 to 100
[23] = preemergence, Rate 250 g/ha, scale 0 to 100, 0 no effect, 100 complete control
[24] = Preemergence, Rate 500 g/ha, scale 0 to 100, 0 no effect, 100 complete control
[25] = preemergence, Rate 125 g/ha, scale of 0 to 100 where 0 is no effect and 100 is complete control, 13 to 15 days
[26] = Preemergence, Rate 500 g/ha, scale 0 to 100
[27] = Rate 62 g/ha, scale 0 to 100, 0 no effect, 100 complete control
[28] = preemergence, Rate 125 g/ha, scale 0 to 100, 0 no effect, 100 complete control

CCCC(C)c1ccn(C2CCN(c3cccc(OCC)c3)C2=O)n1 (stereo not drawn) [Compound 129]
Plant response rating (0 to 100), Sunflower (Sunflower [1]; Rate 500 g/ha): 10
Plant response rating, Foxtail, Giant [2, 21]: 60
Plant response rating, Foxtail, Giant [2, 22]: 20
Plant response rating (0 to 100), Foxtail, Giant ([2]; preemergence, Rate 500 g/ha): 100
Plant response rating, Foxtail, Giant [2, 23]: 80
Plant response rating, Sunflower (Sunflower [3]; [21]): 0
Plant response rating, Surinam grass [4, 21]: 80
Plant response rating, Surinam grass [4, 22]: 80
Plant response rating (0 to 100), Surinam grass ([4]; preemergence, Rate 500 g/ha): 100
Plant response rating, Surinam grass [4, 23]: 90
Plant response rating, Ragweed, Common [5, 21]: 0
Plant response rating, Ragweed, Common [5, 22]: 0
Plant response rating (0 to 100), Ragweed, Common ([5]; preemergence, Rate 500 g/ha): 100
Plant response rating, Ragweed, Common [5, 23]: 100
Plant response rating, Velvetleaf [6, 21]: 0
Plant response rating, Velvetleaf [6, 22]: 0
Plant response rating (0 to 100), Velvetleaf ([6]; preemergence, Rate 500 g/ha): 10
Plant response rating, Velvetleaf [6, 23]: 0
Plant response rating, Goosegrass [7, 21]: 100
Plant response rating, Goosegrass [7, 22]: 100
Plant response rating (0 to 100), Goosegrass ([7]; preemergence, Rate 500 g/ha): 100
Plant response rating, Goosegrass [7, 23]: 100
Plant response rating, Cocklebur [8, 21]: 0
Plant response rating, Cocklebur [8, 22]: 0
Plant response rating (0 to 100), Cocklebur ([8]; preemergence, Rate 500 g/ha, visual evaluation after 12 to 14 days): 0
Plant response rating, Cocklebur [8, 23]: 0
Plant response rating, Crabgrass [9, 21]: 100
Plant response rating, Crabgrass [9, 22]: 100
Plant response rating (0 to 100), Crabgrass ([9]; preemergence, Rate 500 g/ha): 100
Plant response rating, Crabgrass [9, 23]: 100
Plant response rating, Bermudagrass [10, 21]: 100
Plant response rating, Bermudagrass [10, 22]: 100
Plant response rating (0 to 100 where 0 is no effect and 100 is complete control), Bermudagrass ([10]; preemergence, Rate 500 g/ha): 100
Plant response rating, Bermudagrass [10, 23]: 100
Plant response rating, Morningglory [11, 21]: 0
Plant response rating, Morningglory [11, 22]: 0
Plant response rating (0 to 100), Morningglory ([11]; preemergence, Rate 500 g/ha): 0
Plant response rating, Foxtail, Giant [12, 24]: 100
Plant response rating, Foxtail, Giant [12, 25]: 100
Plant response rating, Surinam grass [13, 24]: 100
Plant response rating, Surinam grass [13, 25]: 90
Plant response rating, Barnyardgrass [14, 24]: 100
Plant response rating, Barnyardgrass [14, 25]: 100
Plant response rating, Corn (corn (Zea mays); [24]): 30
Plant response rating, Corn (corn (Zea mays); [25]): 20
Plant response rating, Velvetleaf [15, 24]: 0
Plant response rating, Velvetleaf [15, 25]: 0
Plant response rating, Pigweed [16, 24]: 100
Plant response rating, Pigweed [16, 25]: 100
Plant response rating, Rice (rice (Oryza saliva); [24]): 50
Plant response rating, Rice (rice (Oryza saliva); [25]): 30
Plant response rating, Cocklebur [17, 24]: 0
Plant response rating, Cocklebur [17, 25]: 0
Plant response rating, Crabgrass [18, 24]: 100
Plant response rating, Crabgrass [18, 25]: 100
Plant response rating, Lambsquarters [19, 24]: 100
Plant response rating, Lambsquarters [19, 25]: 100
Plant response rating, Morningglory [20, 24]: 0
Plant response rating, Morningglory [20, 25]: 0

O=C1C(n2ccc(C3CCC3)n2)OCN1c1cccc(C(F)(F)F)c1 (stereo not drawn) [Compound 39]
Plant response rating (0 to 100), Sunflower (Sunflower [1]; Rate 250 g/ha): 0
Plant response rating, Foxtail, Giant [2, 26]: 100
Plant response rating, Foxtail, Giant [2, 27]: 0
Plant response rating (0 to 100), Foxtail, Giant ([2]; preemergence, Rate 250 g/ha): 0
Plant response rating, Foxtail, Giant [2, 28]: 0
Plant response rating, Sunflower (Sunflower [3]; [27]): 0
Plant response rating, Sunflower (Sunflower [3]; Rate 500 g/ha, scale 0 to 100): 0
Plant response rating, Surinam grass [4, 26]: 80
Plant response rating, Surinam grass [4, 27]: 0
Plant response rating (0 to 100), Surinam grass ([4]; preemergence, Rate 250 g/ha): 0
Plant response rating, Surinam grass [4, 28]: 0
Plant response rating, Ragweed, Common [5, 26]: 20
Plant response rating, Ragweed, Common [5, 27]: 0
Plant response rating (0 to 100), Ragweed, Common ([5]; preemergence, Rate 250 g/ha): 0
Plant response rating, Ragweed, Common [5, 28]: 0
Plant response rating, Velvetleaf [6, 26]: 0
Plant response rating, Velvetleaf [6, 27]: 0
Plant response rating (0 to 100), Velvetleaf ([6]; preemergence, Rate 250 g/ha): 0
Plant response rating, Velvetleaf [6, 28]: 0
Plant response rating, Goosegrass [7, 26]: 100
Plant response rating, Goosegrass [7, 27]: 80
Plant response rating (0 to 100), Goosegrass ([7]; preemergence, Rate 250 g/ha): 100
Plant response rating, Goosegrass [7, 28]: 90
Plant response rating, Cocklebur [8, 26]: 0
Plant response rating, Cocklebur [8, 27]: 0
Plant response rating, Crabgrass [9, 26]: 100
Plant response rating, Crabgrass [9, 27]: 90
Plant response rating (0 to 100), Crabgrass ([9]; preemergence, Rate 250 g/ha): 100
Plant response rating, Crabgrass [9, 28]: 100
Plant response rating, Bermudagrass [10, 26]: 100
Plant response rating, Bermudagrass [10, 27]: 90
Plant response rating (0 to 100 where 0 is no effect and 100 is complete control), Bermudagrass ([10]; preemergence, Rate 250 g/ha): 100
Plant response rating, Bermudagrass [10, 28]: 90
Plant response rating, Morningglory [11, 26]: 0
Plant response rating, Morningglory [11, 27]: 0
Plant response rating (0 to 100), Morningglory ([11]; preemergence, Rate 250 g/ha): 0
Plant response rating, Morningglory [11, 28]: 0
Plant response rating, Foxtail, Giant [12, 24]: 100
Plant response rating, Foxtail, Giant [12, 28]: 30
Plant response rating, Surinam grass [13, 24]: 20
Plant response rating, Surinam grass [13, 28]: 20
Plant response rating, Barnyardgrass [14, 24]: 100
Plant response rating, Barnyardgrass [14, 28]: 50
Plant response rating, Corn (corn (Zea mays); [24]): 0
Plant response rating, Corn (corn (Zea mays); [28]): 0
Plant response rating, Velvetleaf [15, 24]: 0
Plant response rating, Pigweed [16, 24]: 100
Plant response rating, Rice (rice (Oryza saliva); [24]): 0
Plant response rating, Cocklebur [17, 24]: 0
Plant response rating, Cocklebur [17, 28]: 0
Plant response rating, Crabgrass [18, 24]: 100
Plant response rating, Crabgrass [18, 28]: 0
Plant response rating, Lambsquarters [19, 24]: 100
Plant response rating, Lambsquarters [19, 28]: 100
Plant response rating, Morningglory [20, 24]: 0
